# Results published in patent publication US20060069132A1, “Azolecarboxamide herbicides” (priority 2004, published 2006).
# Tests used:
# blackgrass = experiment: Test B postemergence herbicide test; type: in vivo, Alopecurus myosuroides; conditions: postemergence, visual rating, scale 0 (no effect) to 100 (complete control)
# Method in brief: (§1)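 Visual control ratings, 0–100 versus untreated controls, taken after 13 to 15 days in the greenhouse. Blackgrass received a postemergence spray at the 1- to 4-leaf stage (2–18 cm); ducksalad, umbrella sedge and barnyardgrass were flooded-paddy treated at 2 leaves.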
# wild oat = experiment: Test B postemergence herbicide test; type: in vivo, Avena fatua; conditions: postemergence, visual rating, scale 0 (no effect) to 100 (complete control)
# Method in brief: (§2)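 Formulated test chemicals went onto postemergence plants measuring 2 to 18 cm, at one to four leaves. For the paddy assay, species had reached two leaves. Scoring took place 13–15 days later by eye, relative to untreated plants, using 0 for no effect up to 100 for full control.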
# giant foxtail = experiment: Test B pre-/postemergence herbicide test; type: in vivo, Setaria faberi; conditions: for Plant response rating, Foxtail, Giant: preemergence; for Foxtail, Giant plant response rating: postemergence, visual rating, scale 0 (no effect) to 100 (complete control)
# Method in brief: (§3)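 Plants compared with untreated controls 13–15 days post-treatment and given a visual 0–100 injury score. Applications: preemergence to seeds; postemergence at 1- to 4-leaf (2–18 cm); paddy species flooded, 2-leaf stage. Vehicle non-phytotoxic, surfactant included.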
# velvetleaf = experiment: Test B pre-/postemergence herbicide test; type: in vivo, Abutilon theophrasti; conditions: for Plant response rating, Velvetleaf: preemergence; for Velvetleaf plant response rating: postemergence, visual rating, scale 0 (no effect) to 100 (complete control)
# Method in brief: as §3
# rice [1] = experiment: Test C flooded paddy test; type: in vivo, Oryza sativa
# Method in brief: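 Injury scored visually against controls on a 0 (no effect) to 100 (complete control) scale, 12 to 14 days after treatment in greenhouse. Flooded paddy plants treated at 2-leaf stage; postemergence plants at 1- to 4-leaf stage, 2 to 18 cm tall.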
# barnyardgrass [2] = experiment: Test C flooded paddy test; type: in vivo, Echinochloa crus-galli
# Method in brief: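 Greenhouse test with a 12–14 day hold after application and visual comparison with controls. Emerged plants were 1- to 4-leaf stage (2–18 cm) when sprayed postemergence, and the paddy barnyardgrass was at 2 leaves under flooded conditions. 100 = complete control.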
# rice [3] = experiment: Test B flooded paddy test; type: in vivo, Oryza sativa; conditions: 1000 g ai/ha, visual rating, scale 0 to 100 (0 no effect, 100 complete control), 13 to 15 days
# Method in brief: as §2
# lambsquarters = experiment: Test B pre-/postemergence herbicide test; type: in vivo, Chenopodium album; conditions: for Plant response rating, Lambsquarters: preemergence; for Lambsquarters plant response rating: postemergence, visual rating, scale 0 (no effect) to 100 (complete control)
# Method in brief: as §3
# ducksalad [4] = experiment: Test C flooded paddy test; type: in vivo, Heteranthera limosa
# Surinam grass = experiment: Test B pre-/postemergence herbicide test; type: in vivo, Urochloa decumbens; conditions: for Plant response rating, Surinam Grass: preemergence; for Surinam Grass plant response rating: postemergence, visual rating, scale 0 (no effect) to 100 (complete control)
# Method in brief: as §3
# [5] = test system: smallflower umbrella sedge; experiment: Test C flooded paddy test; type: in vivo, Cyperus difformis
# pigweed = experiment: Test B pre-/postemergence herbicide test; type: in vivo, Amaranthus retroflexus; conditions: for Plant response rating, Pigweed: preemergence; for Pigweed plant response rating: postemergence, visual rating, scale 0 (no effect) to 100 (complete control)
# Method in brief: as §3
# barnyardgrass [6] = experiment: Test B pre-/postemergence herbicide test; type: in vivo, Echinochloa crus-galli; conditions: for Plant response rating, Barnyardgrass: preemergence; for Barnyardgrass plant response rating: postemergence, visual rating, scale 0 (no effect) to 100 (complete control)
# Method in brief: (§4)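 Response was scored visually 13 to 15 days after treatment against untreated greenhouse controls, 0 meaning no effect and 100 complete control. Formulations (solvent mixture plus surfactant) went onto soil after planting, onto foliage of 1- to 4-leaf plants, and onto 2-leaf plants in a flooded paddy set including rice and barnyardgrass.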
# cocklebur = experiment: Test B pre-/postemergence herbicide test; type: in vivo, Xanthium strumarium; conditions: for Plant response rating, Cocklebur: preemergence; for Cocklebur plant response rating: postemergence, visual rating, scale 0 (no effect) to 100 (complete control)
# Method in brief: as §4
# morningglory = experiment: Test B pre-/postemergence herbicide test; type: in vivo, Ipomoea coccinea; conditions: for Plant response rating, Morningglory: preemergence; for Morningglory plant response rating: postemergence, visual rating, scale 0 (no effect) to 100 (complete control)
# Method in brief: as §4
# [7] = test system: small flower umbrella sedge; experiment: Test B flooded paddy test; type: in vivo, Cyperus difformis; conditions: 1000 g ai/ha, visual rating, scale 0 to 100 (0 no effect, 100 complete control), 13 to 15 days
# Method in brief: as §1
# rice [8] = experiment: Test B pre-/postemergence herbicide test; type: in vivo, Oryza sativa; conditions: preemergence
# Method in brief: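 Greenhouse pot assay with simultaneous preemergence (treated seed) and postemergence (2–18 cm seedlings) applications of surfactant-containing, non-phytotoxic solvent formulations. Response scored visually 13–15 days later on a 0–100 scale, 100 meaning complete control.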
# wheat = experiment: Test B postemergence herbicide test; type: in vivo, Triticum aestivum; set-up: key to Wheat plant response rating: 0 = no effect, 100 = complete control; conditions: postemergence, 500 g ai/ha; visual rating, scale 0 (no effect) to 100 (complete control)
# Method in brief: as §2
# barnyardgrass [9] = experiment: Test B flooded paddy test; type: in vivo, Echinochloa crus-galli; conditions: 1000 g ai/ha, visual rating, scale 0 to 100 (0 no effect, 100 complete control), 13 to 15 days
# Method in brief: as §1
# ducksalad [10] = experiment: Test B flooded paddy test; type: in vivo, Heteranthera limosa; conditions: 1000 g ai/ha, visual rating, scale 0 to 100 (0 no effect, 100 complete control), 13 to 15 days
# Method in brief: as §1
# corn = experiment: Test B pre-/postemergence herbicide test; type: in vivo, Zea mays; conditions: for Plant response rating, Corn: preemergence; for Corn plant response rating: postemergence, visual rating, scale 0 (no effect) to 100 (complete control)
# Method in brief: as §3
# large crabgrass = experiment: Test B pre-/postemergence herbicide test; type: in vivo, Digitaria sanguinalis; conditions: for Plant response rating, Crabgrass, Large: preemergence; for Crabgrass, Large plant response rating: postemergence, visual rating, scale 0 (no effect) to 100 (complete control)
# Method in brief: as §3
# [11] = 500 g ai/ha, visual rating 0-100, 0 no effect, 100 complete control
# [12] = 125 g ai/ha, 0 to 100 scale, 0 is no effect, 100 is complete control
# [13] = 62 g ai/ha, scale 0 to 100 (0 no effect, 100 complete control)
# [14] = 125 g ai/ha, scale 0 to 100 (0 no effect, 100 complete control)
# [15] = 250 g ai/ha, scale of 0 to 100, 0 is no effect, 100 is complete control
# [16] = 500 g ai/ha, visual rating after 12 to 14 days, scale 0 to 100 (0 no effect, 100 complete control)
structure (smiles),measurement,setting,value
CCOC(=O)c1cc(N(C(C)=O)C(=O)c2cc(C(C)(C)C)nn2CC)ccc1C [Compound 141],Blackgrass plant response rating,blackgrass; 125 g ai/ha,20
same,Blackgrass plant response rating,blackgrass; 500 g ai/ha,20
same,"Oat, Wild plant response rating",wild oat; 125 g ai/ha,10
same,"Oat, Wild plant response rating",wild oat; 500 g ai/ha,20
same,"Plant response rating, Foxtail, Giant",giant foxtail; [11],20
same,"Foxtail, Giant plant response rating",giant foxtail; 125 g ai/ha,20
same,"Foxtail, Giant plant response rating",giant foxtail; 500 g ai/ha,20
same,"Plant response rating, Foxtail, Giant",giant foxtail; [12],10
same,"Plant response rating, Velvetleaf",velvetleaf; [11],20
same,Velvetleaf plant response rating,velvetleaf; 125 g ai/ha,20
same,Velvetleaf plant response rating,velvetleaf; 500 g ai/ha,80
same,"Plant response rating, Velvetleaf",velvetleaf; [12],0
same,Rice plant response rating,rice [1]; [13],0
same,Rice plant response rating,rice [1]; [14],0
same,Rice plant response rating,rice [1]; [15],0
same,"Plant response rating, Rice",rice [1]; [16],0
same,Barnyardgrass plant response rating,barnyardgrass [2]; [13],0
same,Barnyardgrass plant response rating,"barnyardgrass [2]; 125 g ai/ha, scale of 0 to 100, 0 is no effect, 100 is complete control",0
same,Barnyardgrass plant response rating,barnyardgrass [2]; [15],0
same,"Plant response rating, Barnyardgrass",barnyardgrass [2]; [16],10
same,Rice plant response rating,rice [3],0
same,"Plant response rating, Lambsquarters",lambsquarters; [11],0
same,Lambsquarters plant response rating,lambsquarters; 125 g ai/ha,60
same,Lambsquarters plant response rating,lambsquarters; 500 g ai/ha,90
same,"Plant response rating, Lambsquarters",lambsquarters; [12],0
same,Ducksalad plant response rating,ducksalad [4]; [13],0
same,Ducksalad plant response rating,ducksalad [4]; [14],0
same,Ducksalad plant response rating,ducksalad [4]; [15],0
same,"Plant response rating, Ducksalad",ducksalad [4]; [16],0
same,"Plant response rating, Surinam Grass",Surinam grass; [11],10
same,Surinam Grass plant response rating,Surinam grass; 125 g ai/ha,10
same,Surinam Grass plant response rating,Surinam grass; 500 g ai/ha,20
same,"Plant response rating, Surinam Grass",Surinam grass; [12],0
same,"Sedge, Umbrella plant response rating",[5]; [13],0
same,"Sedge, Umbrella plant response rating",[5]; [14],0
same,"Sedge, Umbrella plant response rating",[5]; [15],30
same,"Plant response rating, Sedge, Umbrella",[5]; [16],45
same,"Plant response rating, Pigweed",pigweed; [11],30
same,Pigweed plant response rating,pigweed; 125 g ai/ha,30
same,Pigweed plant response rating,pigweed; 500 g ai/ha,80
same,"Plant response rating, Pigweed",pigweed; [12],0
same,"Plant response rating, Barnyardgrass",barnyardgrass [6]; [11],0
same,Barnyardgrass plant response rating,barnyardgrass [6]; 125 g ai/ha,0
same,Barnyardgrass plant response rating,barnyardgrass [6]; 500 g ai/ha,10
same,"Plant response rating, Barnyardgrass",barnyardgrass [6]; [12],0
same,"Plant response rating, Cocklebur",cocklebur; [11],10
same,Cocklebur plant response rating,cocklebur; 125 g ai/ha,0
same,Cocklebur plant response rating,cocklebur; 500 g ai/ha,20
same,"Plant response rating, Cocklebur",cocklebur; [12],0
same,"Plant response rating, Morningglory",morningglory; [11],30
same,Morningglory plant response rating,morningglory; 125 g ai/ha,20
same,Morningglory plant response rating,morningglory; 500 g ai/ha,30
same,"Plant response rating, Morningglory",morningglory; [12],20
same,"Sedge, Umbrella plant response rating",[7],90
same,"Plant response rating, Rice",rice [8]; [11],0
same,"Plant response rating, Rice",rice [8]; [12],0
same,Wheat plant response rating,wheat,20
same,Barnyardgrass plant response rating,barnyardgrass [9],10
same,Ducksalad plant response rating,ducksalad [10],80
same,"Plant response rating, Corn",corn; [11],0
same,Corn plant response rating,corn; 125 g ai/ha,0
same,Corn plant response rating,corn; 500 g ai/ha,10
same,"Plant response rating, Corn",corn; [12],0
same,"Plant response rating, Crabgrass, Large",large crabgrass; [11],20
same,"Crabgrass, Large plant response rating",large crabgrass; 125 g ai/ha,10
same,"Crabgrass, Large plant response rating",large crabgrass; 500 g ai/ha,30
same,"Plant response rating, Crabgrass, Large",large crabgrass; [12],10
